Test results reported in patent US20210236466A1, “COMPOUNDS AND COMPOSITIONS FOR TREATING CONDITIONS ASSOCIATED WITH STING ACTIVITY” (IFM Due, Inc., priority 2018, published 2021).
Values belong to the compound of their own block, whether it stands above or below them.

Biological target: T1, hSTING (Homo sapiens, UniProt Q86WV6, G230A/H232R/R293Q/R71H)
T1 construct: host or cells: THP1-Dual KO-IFNAR2 cells
Experiment: STING reporter assay: luciferase reporter activity in THP1-Dual KO-IFNAR2 cells stimulated with 2'3'cGAMP
Assay type: cell-based
Conditions: 15 μM 2'3'cGAMP, 24 h
Procedure: STING pathway activation by the compounds described herein is measured using THP1-Dual™ cells (KO-IFNAR2).
THP1-Dual™ KO-IFNAR2 Cells (obtained from invivogen) are maintained in RPMI, 10% FCS, 5 ml P/S, 2 mM L-glut, 10 mM Hepes, and 1 mM sodium pyruvate. Compounds are spotted in empty 384 well tissue culture plates (Greiner 781182) by Echo for a final concentration of 0.0017-100 μM. Cells are plated into the TC plates at 40 μL per well, 2×10E6 cells/mL. For activation with STING ligand, 2′3′cGAMP (MW 718.38, obtained from Invivogen), is prepared in Optimem media.
The following solutions are prepared for each 1×384 plate: • Solution A: 2 mL Optimem with one of the following stimuli: • 60 uL of 10 mM 2′3′cGAMP->150 μM stock • Solution B: 2 mL Optimem with 60 μL Lipofectamine 2000->Incubate 5 min at RT
2 mL of solution A and 2 ml Solution B is mixed and incubated for 20 min at room temperature (RT). 20 uL of transfection solution (A+B) is added on top of the plated cells, with a final 2′3′cGAMP concentration of 15 μM. The plates are then centrifuged immediately at 340 g for 1 minute, after which they are incubated at 37° C. 5% CO2, >98% humidity for 24 h. Luciferase reporter activity is then measured. EC50 values are calculated by using standard methods known in the art.
Luciferase reporter assay: 10 μL of supernatant from the assay is transferred to white 384-plate with flat bottom and squared wells, one pouch of QUANTI-Luc™ Plus is dissolved in 25 mL of water. 100 μL of QLC Stabilizer per 25 mL of QUANTI-Luc™ Plus solution is added. 50 μL of QUANTI-Luc™ Plus/QLC solution per well is then added. Luminescence is measured on a Platereader (e.g., Spectramax I3X (Molecular Devices GF3637001)).
Luciferase reporter activity is then measured. EC50 values are calculated by using standard methods known in the art.

T1 sequence (Q86WV6 whole entry R71H/G230A/H232R/R293Q): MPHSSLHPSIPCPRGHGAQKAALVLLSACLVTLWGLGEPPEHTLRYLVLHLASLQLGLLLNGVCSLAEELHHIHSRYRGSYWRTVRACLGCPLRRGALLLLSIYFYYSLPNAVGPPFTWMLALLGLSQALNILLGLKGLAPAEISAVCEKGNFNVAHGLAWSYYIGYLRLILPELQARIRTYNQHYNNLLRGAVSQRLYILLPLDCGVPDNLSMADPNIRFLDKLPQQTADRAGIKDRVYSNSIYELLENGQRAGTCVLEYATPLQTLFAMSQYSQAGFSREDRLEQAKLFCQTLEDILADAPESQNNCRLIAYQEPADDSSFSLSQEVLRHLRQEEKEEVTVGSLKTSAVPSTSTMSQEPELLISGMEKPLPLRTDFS

EC50: 5 to 100 µM
Structure (SMILES): O=C(Nc1ccc(C(F)(F)F)nc1)Nc1c[nH]nc1-c1ccccc1 [Compound 37]

EC50: 5 to 100 µM
Structure (SMILES): O=C(Nc1c[nH]nc1-c1ccccc1)NC1CCC2(CCC2)CC1 [Compound 40]

EC50: 5 to 100 µM
Structure (SMILES): CCCCc1ccc(NC(=O)Nc2c[nH]nc2C2CCCCC2)cc1 [Compound 44]

EC50: < 5 µM
Structure (SMILES): CCCCc1ccc(NC(=O)Nc2c[nH]nc2-c2ccccn2)cc1 [Compound 47]

EC50: 5 to 100 µM
Structure (SMILES): CC(C)(C)C1CCC(NC(=O)Nc2c[nH]nc2-c2ccccc2)CC1 (stereo not drawn) [Compound 48]

EC50: 5 to 100 µM
Structure (SMILES): O=C(Nc1c[nH]nc1-c1ccccc1)NC1CCc2ccccc2C1 (stereo not drawn) [Compound 49]

EC50: 5 to 100 µM
Structure (SMILES): O=C(Nc1c[nH]nc1-c1ccccc1)NC1CCCc2ccccc21 (stereo not drawn) [Compound 50]

EC50: 5 to 100 µM
Structure (SMILES): O=C(Nc1c[nH]nc1-c1ccccc1)NC1CCC(c2ccccc2)CC1 (stereo not drawn) [Compound 55]

EC50: 5 to 100 µM
Structure (SMILES): O=C(Nc1ccc(C(F)(F)F)cc1)Nc1c[nH]nc1-c1ccccc1 [Compound 58]

Further lines, the compound ahead of its results:

Structure (SMILES): O=C(Nc1ccc(C2CCCCC2)nc1)Nc1c[nH]nc1-c1ccccc1 [Compound 36]
EC50: < 5 µM

Structure (SMILES): O=C(Nc1ccc(C2CCCCC2)cn1)Nc1c[nH]nc1-c1ccccc1 [Compound 38]
EC50: 5 to 100 µM

Structure (SMILES): O=C(Nc1ccc(C(F)(F)F)cn1)Nc1c[nH]nc1-c1ccccc1 [Compound 39]
EC50: < 5 µM

Structure (SMILES): CCCCc1ccc(NC(=O)Nc2c[nH]nc2C)cc1 [Compound 41]
EC50: 5 to 100 µM

Structure (SMILES): CCCCc1ccc(NC(=O)Nc2c[nH]nc2-c2ccsc2)cc1 [Compound 42]
EC50: < 5 µM

Structure (SMILES): CCCCc1ccc(NC(=O)Nc2c[nH]nc2-c2nccs2)cc1 [Compound 43]
EC50: < 5 µM

Structure (SMILES): CCCCc1ccc(NC(=O)Nc2c[nH]nc2-c2ccccc2F)cc1 [Compound 45]
EC50: < 5 µM

Structure (SMILES): CCCCc1cccc(NC(=O)Nc2c[nH]nc2-c2ccccc2)c1 [Compound 46]
EC50: 5 to 100 µM

Structure (SMILES): O=C(Nc1c[nH]nc1-c1ccccc1)NC1CCCC(c2ccccc2)C1 (stereo not drawn) [Compound 51, 3-(3-Phenyl-1H-pyrazol-4-yl)-1-(3-phenylcyclohexyl)urea]
EC50: 5 to 100 µM

Structure (SMILES): CCCCc1ccc(NC(=O)Nc2cn[nH]c2)cc1 [Compound 52]
EC50: 5 to 100 µM

Structure (SMILES): CCCCC1CCC(NC(=O)Nc2c[nH]nc2-c2ccccc2)CC1 (stereo not drawn) [Compound 54]
EC50: 5 to 100 µM

Structure (SMILES): O=C(Nc1cccc(C(F)(F)F)c1)Nc1c[nH]nc1-c1ccccc1 [Compound 56]
EC50: 5 to 100 µM

Structure (SMILES): O=C(Nc1ccc(C(F)(F)F)cc1)Nc1cn[nH]c1 [Compound 57]
EC50: 5 to 100 µM

Structure (SMILES): CCCCc1ccc(NC(=O)Nc2c[nH]nc2-c2ccccc2)cc1 [Compound 59, l-(4-Butylphenyl)-3-(3-phenyl-1H-pyrazol-4-yl)urea]
EC50: < 5 µM

Structure (SMILES): CCCCc1ccc(NC(=O)N2CCCc3n[nH]cc32)cc1 [Compound 60]
EC50: 5 to 100 µM
